The results in this text go back to patent EP0252983B1, “SALTS OF N-(VINYLOXIETHYL)DITHIOCARBAMIC ACID, METHOD OF OBTAINING THEREOF AND […] ON THEM” (priority 1985, dated 1987).

Holding throughout (assay): Mycelial growth inhibition on agar (contact activity)
Common to all, as to format: cell-based

One assay concerns Chaetomium globosum. How it is done:
(§1) Die Prüfungen werden nach dem Verfahren zur Ermittlung der Kontaktaktivität durchgeführt. Man verwendet das in Wasser gelöste Kalium-N-(vinyloxyäthyl)dithiocarbamat, führt es in ein Nährmedium ein und vergießt auf Petri-Schalen. Nach 24 Stunden wird mit Pilzmyzelium nach einem Stichverfahren geimpft. Dann temperiert man die Schalen innerhalb von 5 Tagen bei einer zwischen 24 und 26 °C liegenden Temperatur und mißt den Durchmesser von Pilzkolonien, ermittelt den Prozentsatz der Hemmung des Myzelwachstums (S) ausgehend von Angaben am 5. Tag nach der Abbott-Formel [drawing 13] worin dc für den Durchmesser der Pilzkolonien, de für den Durchmesser von Pilzkolonien in der Schale stehen, wo ein die zu prüfenden Stoffe enthaltendes Medium vorhanden ist. Dieses Verfahren zur Ermittlung der mikrobiologischen Aktivität ist in anderen Beispielen verwendet.

In another assay the test system is Paecilomyces varioti. The conditions noted are these: Paecilomyces, 120 h; Wirkstoffkonzentration 0,003 %; Tabelle 3; read-out: Mycelhemmung, in %. The protocol: as §1
The next assay deals with Penicillium funiculosum. How it is done: as §1
The next assay deals with Stereum hirsutum. The conditions noted are these: Stereum hirsutum, 120 h; Wirkstoffkonzentration 0,003 %; Tabelle 3; read-out: Mycelhemmung, in %. How it is done:
as §1

A further assay deals with Acremonium charticola. The note with it: Acremonium charticola, 120 h; Präparatkonzentration 0,0015 %; Würzeagar; read-out: Myzelhemmung in %.

Take `C=COCCNC(=S)S` [Kalium-N-(vinyloxyäthyl)dithiocarbamat]: the inhibition of growth at 0.003 % in the assay with Chaetomium globosum (Chaetomium globosum, 120 h, Wirkstoffkonzentration 0,003 %, Tabelle 3, read-out: Mycelhemmung, in %) worked out at 100%; in the assay with Paecilomyces varioti, 100%; in the assay with Penicillium funiculosum (Talaromyces funiculosus, 120 h, Wirkstoffkonzentration 0,003 %, Tabelle 3, read-out: Mycelhemmung, in %), 100%; in the assay on Stereum hirsutum it was 100%. For the same compound, the “Aktivität übersteigt Polykarbazin (Vergleichsmuster)” value with Chaetomium globosum (gegen das Myzelium der Pilze Chaetomium globosum) amounted to 10%. In addition, the “Aktivität übersteigt Salizylanilid (Vergleichsmuster)” value in the assay on Penicillium funiculosum (gegen Myzelium von Penicillium funiculosum) is 10%. In addition, the inhibition of growth at 0.0015 % in the assay on Acremonium charticola was 100%.
